The test system of experiment [1] is IgG 4E10. Nature of the experiment: Competitive ELISA (IC50): peptide competes with biotinylated 4E10-epitope peptide for IgG 4E10. Particulars: for increased binding affinity in comparison with its peptide control: 33-1 vs control 44-1, 104-2 vs control 104-1, ELISA; for higher affinity of 4E10 than to the original peptide KGND: as determined by surface plasmon resonance and ELISA. The class given is binding, human. The protocol:
IC50, were determined by competitive ELISA using a constant concentration of biotinylated peptide and IgG with a variable concentration of gp41 peptides. Microwells were coated overnight at 4° C. with 50 μl PBS containing neutravidin (Pierce; 4 μg/ml). […] A mixture of a biotinylated 4E10-epitope peptide, […](biotin)-NH2 (SEQ ID NO: 88) (20 nM), IgG 4E10 (0.2 nM), and the competing peptide analog (3-fold dilution series starting at 10 μM) in 0.4% non-fat dry milk, 0.02% Tween and PBS was incubated in a separate 96-well plate at 37° C. for 2 hours. After washing the blocked plate, the mixture of 4E10, biotinylated peptide and competing peptide was added to the wells. After 20 minutes at room temperature, the Wells were washed five times, and a 1:500 dilution of goat anti-human IgG F(ab′)2 HRP conjugate (Pierce) was added. Following incubation at RT for 40 minutes, the wells were washed five times, and developed by adding 50 μl of TMB solution (Pierce) according to the manufacturer's instructions. After ˜20 minutes, wells containing TMB solution were stopped by adding 50 μl of H2SO4 (2M) and the O.D. at 450 nm was read on a microplate reader (Molecular Devices). The concentration of competitor peptide corresponding to a half-maximal signal (IC50) was determined by interpolation of the resulting binding curve. Each peptide competitor was tested in duplicate in at least two separate experiments.
IC50s were determined by competitive ELISA using a constant concentration of biotinylated peptide and IgG with a variable concentration of gp41 peptides. Microwells were coated overnight at 4° C. with 50 μl PBS containing neutravidin (Pierce; 4 μg/ml). […] Meanwhile, a mixture of a biotinylated 4E10-peptide epitope, […](biotin)-NH2 (SEQ ID NO: 88), (20 nM), IgG 4E10 (0.2 nM), and the competing peptide analogue (3-fold dilution series starting at 10 μM) in 0.4% NFDM, 0.02% Tween and PBS was incubated in a separate 96-well plate at 37° C. for 2 h. After washing the blocked plate, the mixture of 4E10, biotinylated peptide and competing peptide was added to the wells. After 20 min at room temperature, the wells were washed five times, and a 1:500 dilution of goat anti-human IgG F(ab′)2 HRP conjugate (Pierce) was added. Following incubation at RT for 40 min, the wells were washed five times, and developed by adding 50 μl of H2SO4 (2 M), and the O.D. at 450 nm was read on a microplate reader (Molecular Devices). The concentration of competitor peptide corresponding to a half-maximal signal (IC50) was determined by interpolation of the resulting binding curve. Each peptide competitor was tested in duplicate in at least two separate experiments.

In experiment [2] the test system is Fab 4E10. The experiment is described as follows: Surface plasmon resonance (Biacore 2000), Fab 4E10 on CM5 chip. The class given is binding, human. The protocol:
The affinitiefs of the peptide analogs for 4E10 were also measured by surface plasmon resonance. Surface plasmon resonance experiments were performed using a Biacore 2000 instrument (Uppsala, Sweden). Around 2,200 response units (RU) of Fab 4E10 were coated on CM5 chips. The carboxyl groups on the chip were activated with 1-ethyl-3-(3-dimethylaminopropyl)carbodiimide hydrochloride (EDC) and N-hydroxysuccinimide (NHS). Fifty micrograms of Fab were diluted in 10 mM sodium acetate pH 4.5; a flow rate of 5 μl/min was used. Unreacted carboxyl groups were blocked with 1M ethanolamine at pH 8.5. The control was treated in the same fashion without any antibody present. Different amounts of free peptides were then passed over the surfaces at 30 or 50 μl/min for 2 min. Regeneration was done in HPS-EP buffer, 0.25 NaCl (Biacore) in 10 minutes. The amount of salt was increased compared to the commercial buffer to reduce the non-specific binding. For data evaluation, the BIAevaluation software was used. RI and Rmax were controlled, double referencing were done (0 concentration and start point). Analyses were performed to achieve the best curve fitting and small chi^2 (<1).
Surface plasmon resonance experiments were performed using a Biacore 2000 instrument (Uppsala, Sweden).
Chip preparation: around 2,200 response units (RU) of Fab 4E10 were coated on CM5 chips. The carboxyl groups on the chip were activated with 1-ethyl-3-(3-dimethylaminopropyl) carbodiimide hydrochloride (EDC) and N-hydroxysuccinimide (NHS). Fifty micrograms of Fab was diluted in 10 mM sodium acetate pH 4.5; a flow rate of 5 μl/min was used. Unreacted carboxyl groups were blocked with 1M ethanolamine at pH 8.5. The control was treated in the same fashion without any antibody present.
Experiment: different amounts of free peptides were then passed over the surfaces at 30 or 50 μl/min for 2 min. Regeneration was done in HPS-EP buffer, 0.25 NaCl (Biacore) in 10 min. The amount of salt was increased compared to the commercial buffer to reduce the non-specific binding.
Data evaluation: the BIAevaluation software was used. RI and Rmax were controlled, double referencing were done (0 concentration and start point). Analyses were performed to achieve the best curve fitting and small chi^2 (<1).
(In SPR one partner is held on a chip, and binding of the other changes the refractive index at the surface.)

In experiment [3] the target is recombinant IgG1(kappa) 4E10. The experiment is described as follows: competitive ELISA: peptide against biotinylated …(biotin)-NH2 for IgG 4E10. For orientation: ELISA stands for enzyme-linked immunosorbent assay.
recombinant IgG1(kappa) 4E10, sequence (heavy, as listed by the source): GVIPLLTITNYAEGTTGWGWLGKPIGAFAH
The mark [4] stands for this setting: Table 7, 4E10 peptide epitopes, read-out: IC50.
Where [5] appears, read: Table 7, 4E10 peptide epitopes, read-out: Kd.
Where [6] appears, read: Table 6, constrained analogs, 4E10 binding, read-out: IC50.
Where [7] appears, read: Table 6, constrained analogs, 4E10 binding, read-out: Kd.
The mark [8] stands for this setting: read-out: IC50 (4E10 binding, competitive ELISA).
[9] abbreviates: Table 5, unconstrained peptide analogs, 4E10 binding, read-out: IC50.

The source of these data is patent publication US20110124842A1 (priority 2003, published 2011).

Where two headings read alike, the source gives them in different places. Bridges are numbered along the chain shown (N, C = ends). Where no end group is shown, it is not given here. [ ]: non-standard residue; d: D form. code O = not defined here; Aib = CC(C)(N)C(=O)O A value given as a limit tells only on which side of the number the result lay.

For the molecule NWFDITN-Aib-LWRR-NH2 [Peptide 33-1], in experiment [1], the “increased binding affinity in comparison with its peptide control” value turned out to be 3 fold and the “higher affinity of 4E10 than to the original peptide KGND” value is “approximately 10^3 fold”. Besides, in experiment [1] (setting [4]), the concentration for half-maximal inhibition (IC50) was 100 to 400 nM. In experiment [2] (Table 7), this molecule registered a koff of 0.13 s⁻¹ and a kon of 431000 M⁻¹ s⁻¹. In addition, the dissociation constant Kd in experiment [2] (setting [5]) worked out at 302 nM.
In the case of “c(CWFO)ITNWLWKKKK-NH2 (CWF[code O]ITNWLWKKKK-NH2; bridge 1-4; reading uncertain; also: printed as c(CWFO)ITNWLWKKKK-NH2) [Peptide 74-2]”, the half-inhibitory concentration (IC50) in experiment [1] (setting [6]) amounted to 230 nM. Also, in experiment [2] (setting [7]), the Kd stood at 276 nM.
As to NWFDITNWLWKBKBK-NH2 [Peptide 102-1], the 50% inhibitory concentration (IC50) in experiment [1] (setting [8]) stood at 10 nM.
With “WNWFDITNWLWKKKK [Peptide 84-2, WNWFDITNWLWKKKK-NH2]”, the IC50 in experiment [1] (setting [9]) amounted to 120 nM.
For the molecule “KKBNWFDITNWLWKBKBK-NH2 (KKXNWFDITNWLWKXKXK-NH2; not fully specified (residues 3, 15, 17); printed as KKBNWFDITNWLWKBKBK-NH2) [Peptide 102-2]”, the concentration for half-maximal inhibition (IC50) in experiment [1] (setting [6]) came to 10 nM.
In the case of “NWFCITOWLWKKKK-NH2 (NWFCIT[code O]WLWKKKK-NH2; not fully specified; printed as NWFCITOWLWKKKK-NH2; reading uncertain) [Peptide 104-1]”, the IC50 in experiment [1] (setting [9]) and in experiment [1] (setting [4]) was 40 nM in each case.
With “SLWNWFDITNWLWYIKKKK [SLWNWFDITNWLWYIKKKK-NH2]”, in experiment [1] (setting [8]), the concentration for half-maximal inhibition (IC50) turned out to be 10 nM.
With KGWNWFDITNWGK [KGND], the IC50 in experiment [1] (setting [9]) is greater than 10000 nM; in experiment [1] (setting [6]), greater than 10000 nM; in experiment [1] (setting [4]), greater than 10000 nM; in experiment [1] (setting [8]) it was 10000 nM.
In the case of “SLWNWFDITNWLWKKKK [Peptide 84-4, SLWNWFDITNWLWKKKK-NH2]”, in experiment [1] (setting [9]), the IC50 turned out to be 120 nM.
Take “NWFDITNWLWRR [Peptide 44-1, NWFDITNWLWRR-NH2]”: the IC50 in experiment [1] (setting [4]) was 600 nM.
Consider “NWFc(CITO)WLWKKKK-NH2 (NWFCIT[code O]WLWKKKK-NH2; bridge 4-7; reading uncertain; also: printed as NWFc(CITO)WLWKKKK-NH2) [Peptide 104-2]”, for which, in experiment [1], the “increased binding affinity in comparison with its peptide control” value is 4 fold. The IC50 in experiment [1] (setting [6]), in experiment [1] (setting [4]) and in experiment [1] (setting [8]) was 10 nM each time. Also, the “higher affinity of 4E10 than to the original peptide KGND” value in experiment [1] is on record as “approximately 10^3 fold”. Besides, the dissociation constant Kd in experiment [2] (setting [7]), in experiment [2] (setting [5]) and in experiment [2] (read-out: Kd (Biacore)) was 17 nM in each case. Besides, the “higher affinity of 4E10 than to peptide 33-1” value in experiment [2] (Table 7) was “about 17 fold”. This molecule registered a koff in experiment [2] (Table 7) of 0.0034 s⁻¹. The molecule further had a kon in experiment [2] (Table 7) of 202000 M⁻¹ s⁻¹.
Regarding “NWFDITNWLWKKKK [Peptide 84-1, NWFDITNWLWKKKK-NH2]”, the IC50 in experiment [1] (setting [8]) stood at 40 nM. The Kd in experiment [2] (Table 5, unconstrained peptide analogs, 4E10 binding, read-out: Kd) came to 100 nM.

B1: peptide 102-1, …BKBK-NH2 (peptide)
peptide: NWFDITNWLWK[Aib]K[Aib]K-NH2
modifications: N-terminus assumed
SMILES: CC[C@H](C)[C@H](NC(=O)[C@H](CC(=O)O)NC(=O)[C@H](Cc1ccccc1)NC(=O)[C@H](Cc1c[nH]c2ccccc12)NC(=O)[C@@H](N)CC(N)=O)C(=O)N[C@H](C(=O)N[C@@H](CC(N)=O)C(=O)N[C@@H](Cc1c[nH]c2ccccc12)C(=O)N[C@@H](CC(C)C)C(=O)N[C@@H](Cc1c[nH]c2ccccc12)C(=O)N[C@@H](CCCCN)C(=O)NC(C)(C)C(=O)N[C@@H](CCCCN)C(=O)NC(C)(C)C(=O)N[C@@H](CCCCN)C(N)=O)[C@@H](C)O
In the case of B1, in experiment [3], the concentration for half-maximal inhibition (IC50) was found to be 10 nM.

For orientation: IC50 means the midpoint of a concentration-inhibition curve. As a reminder, the koff is the first-order rate constant of dissociation. A low value points to slow dissociation. What is called kon is the rate constant with which the complex forms. High values mean fast association, low ones slow association. In general, Kd refers to the constant that tells how readily two partners part at equilibrium.
